This is an account of results in ChEMBL document CHEMBL3822398, “Design, synthesis and in vitro biological evaluation of short-chain C12-sphinganine and its 1,2,3-triazole analogs as potential antimicrobial and anti-biofilm agents” (Eur J Med Chem, 2016).

Holding throughout (type): functional
Test [1] has as its system Raoultella planticola. Put plainly: Bactericidal activity against Klebsiella planticola MTCC 530 incubated for 24 hrs. Particulars: MTCC 530, 24 h.
In test [2] the test system is Staphylococcus aureus. Description: Antibacterial activity against Staphylococcus aureus MLS16 MTCC 2940 incubated for 24 hrs at 37 degC by well diffusion method. Particulars: MLS16 MTCC 2940, 24 h.
The test system of test [3] is Micrococcus luteus. Put plainly: Antibacterial activity against Micrococcus luteus MTCC 2470 incubated for 24 hrs at 37 degC by well diffusion method. The conditions noted are these: MTCC 2470, 24 h.
The test system of test [4] is Raoultella planticola. Put plainly: Antibacterial activity against Klebsiella planticola MTCC 530 incubated for 24 hrs at 37 degC by well diffusion method. Particulars: MTCC 530, 24 h.
Test [5] deals with Staphylococcus aureus. Put plainly: Bactericidal activity against Staphylococcus aureus MLS16 MTCC 2940 incubated for 24 hrs. The conditions noted are these: MLS16 MTCC 2940, 24 h.
For test [6], the system named is Escherichia coli. Description: Bactericidal activity against Escherichia coli MTCC 739 incubated for 24 hrs. Particulars: MTCC 739, 24 h.
The subject of another test is Pseudomonas aeruginosa. Put plainly: Antibacterial activity against Pseudomonas aeruginosa MTCC 2453 incubated for 24 hrs at 37 degC by well diffusion method. The conditions noted are these: MTCC 2453, 24 h.
The test system of test [7] is Bacillus subtilis. Put plainly: Bactericidal activity against Bacillus subtilis MTCC 121 incubated for 24 hrs. The conditions noted are these: MTCC 121, 24 h.
Test [8] has as its system Bacillus subtilis. Description: Antibacterial activity against Bacillus subtilis MTCC 121 incubated for 24 hrs at 37 degC by well diffusion method. Particulars: MTCC 121, 24 h.
Test [9] deals with Micrococcus luteus. Description: Bactericidal activity against Micrococcus luteus MTCC 2470 incubated for 24 hrs. Particulars: MTCC 2470, 24 h.
In test [10] the test system is Staphylococcus aureus. Description: Antibacterial activity against Staphylococcus aureus MTCC 96 incubated for 24 hrs at 37 degC by well diffusion method. Particulars: MTCC 96, 24 h.
Test [11] deals with Staphylococcus aureus. Put plainly: Bactericidal activity against Staphylococcus aureus MTCC 96 incubated for 24 hrs. The conditions noted are these: MTCC 96, 24 h.
For test [12], the system named is Escherichia coli. Description: Antibacterial activity against Escherichia coli MTCC 739 incubated for 24 hrs at 37 degC by well diffusion method. Particulars: MTCC 739, 24 h.

Structures are written as SMILES. ≈ marks a conversion by molar mass, not a printed value. Bounds are passed on as bounds.

As to `CCCCCCCCC[C@@H](O)[C@H](CO)n1cc(CCCCCC)nn1`, the MBC is > 250 µg/mL in the test on Raoultella planticola [1]; > 250 µg/mL against Staphylococcus aureus [5]; > 250 µg/mL in the test on Escherichia coli [6]; 15.6 µg/mL (≈ 44.1 µM) in the test with Bacillus subtilis [7]; 15.6 µg/mL (≈ 44.1 µM) in the test on Micrococcus luteus [9]; 3.9 µg/mL (≈ 11 µM) with Staphylococcus aureus [11]. The minimal inhibitory concentration (MIC) is > 250 µg/mL in the test with Staphylococcus aureus [2]; 7.8 µg/mL (≈ 22.1 µM) against Micrococcus luteus [3]; > 250 µg/mL against Raoultella planticola [4]; > 250 µg/mL against Pseudomonas aeruginosa; 7.8 µg/mL (≈ 22.1 µM) against Bacillus subtilis [8]; 3.9 µg/mL (≈ 11 µM) with Staphylococcus aureus [10]. Further, the minimum inhibitory concentration (MIC) in the test with Escherichia coli [12] was > 250 µg/mL.

Take `O=C(O)c1cn(C2CC2)c2cc(N3CCNCC3)c(F)cc2c1=O` [CIPROFLOXACIN]: the minimal bactericidal concentration (MBC) against Raoultella planticola [1] worked out at 0.9 µg/mL (≈ 2.72 µM); in the test on Staphylococcus aureus [5], 1.9 µg/mL (≈ 5.73 µM); in the test on Escherichia coli [6], 1.9 µg/mL (≈ 5.73 µM); against Bacillus subtilis [7] it was 1.9 µg/mL (≈ 5.73 µM); against Micrococcus luteus [9] it was 0.9 µg/mL (≈ 2.72 µM); against Staphylococcus aureus [11], 0.9 µg/mL (≈ 2.72 µM). Besides, the MIC against Staphylococcus aureus [2], with Micrococcus luteus [3], in the test on Raoultella planticola [4], in the test with Pseudomonas aeruginosa, against Bacillus subtilis [8] and against Staphylococcus aureus [10] was 0.9 µg/mL (≈ 2.72 µM) in each case. This molecule also yielded an MIC against Escherichia coli [12] of 0.9 µg/mL (≈ 2.72 µM).

For `CCCCCCCCC[C@@H](O)[C@H](CO)n1cc(-c2ccc3cc(OC)ccc3c2)nn1`, the MIC against Staphylococcus aureus [2], against Micrococcus luteus [3], against Raoultella planticola [4], in the test on Pseudomonas aeruginosa, in the test with Bacillus subtilis [8] and in the test with Staphylococcus aureus [10] was > 250 µg/mL throughout. Further, the minimum inhibitory concentration (MIC) with Escherichia coli [12] is > 250 µg/mL.

As to `CCCCCCCCC[C@@H](O)[C@H](CO)n1cc(CO)nn1`, the MBC is > 250 µg/mL in the test on Raoultella planticola [1]; > 250 µg/mL against Staphylococcus aureus [5]; > 250 µg/mL in the test on Escherichia coli [6]; 31.2 µg/mL (≈ 104 µM) in the test with Bacillus subtilis [7]; 15.6 µg/mL (≈ 52.1 µM) against Micrococcus luteus [9]; > 250 µg/mL against Staphylococcus aureus [11]. Also, the MIC against Staphylococcus aureus [2] was > 250 µg/mL; with Micrococcus luteus [3], 7.8 µg/mL (≈ 26.1 µM); in the test on Raoultella planticola [4], > 250 µg/mL; in the test on Pseudomonas aeruginosa it was > 250 µg/mL; against Bacillus subtilis [8] it was 31.2 µg/mL (≈ 104 µM); against Staphylococcus aureus [10], > 250 µg/mL. Moreover, the minimal inhibitory concentration (MIC) with Escherichia coli [12] was > 250 µg/mL.

Take `CCCCCCCCC[C@@H](O)[C@H](CO)n1cc(CCO)nn1`: the minimum bactericidal concentration (MBC) against Raoultella planticola [1] is > 250 µg/mL; against Staphylococcus aureus [5], > 250 µg/mL; against Escherichia coli [6], > 250 µg/mL; in the test on Bacillus subtilis [7], 31.2 µg/mL (≈ 99.5 µM); in the test with Micrococcus luteus [9], 31.2 µg/mL (≈ 99.5 µM); with Staphylococcus aureus [11], 31.2 µg/mL (≈ 99.5 µM). Moreover, the minimal inhibitory concentration (MIC) was > 250 µg/mL against Staphylococcus aureus [2]; 15.6 µg/mL (≈ 49.8 µM) against Micrococcus luteus [3]; > 250 µg/mL in the test with Raoultella planticola [4]; > 250 µg/mL in the test on Pseudomonas aeruginosa; 31.2 µg/mL (≈ 99.5 µM) against Bacillus subtilis [8]; 31.2 µg/mL (≈ 99.5 µM) with Staphylococcus aureus [10]. For the same molecule, the MIC in the test with Escherichia coli [12] is > 250 µg/mL.
